Results as given in patent US9512107B2, “Therapeutically active compositions and their methods of use” (Agios Pharmaceuticals, Inc., priority 2012, dated 2016).
Where a chain is given by its changes, count along the chain named. Where two headings read alike, the source gives them in different places.

Assays:
IDH2 R140Q = biological target: T1, IDH2 R140Q (Homo sapiens, UniProt P48735, R140Q); assay: IDH2 R140Q enzymatic assay (cofactor depletion, similar format); type: biochemical; settings: read-out: Enz R140Q
T1 sequence (P48735 40-452 R140Q): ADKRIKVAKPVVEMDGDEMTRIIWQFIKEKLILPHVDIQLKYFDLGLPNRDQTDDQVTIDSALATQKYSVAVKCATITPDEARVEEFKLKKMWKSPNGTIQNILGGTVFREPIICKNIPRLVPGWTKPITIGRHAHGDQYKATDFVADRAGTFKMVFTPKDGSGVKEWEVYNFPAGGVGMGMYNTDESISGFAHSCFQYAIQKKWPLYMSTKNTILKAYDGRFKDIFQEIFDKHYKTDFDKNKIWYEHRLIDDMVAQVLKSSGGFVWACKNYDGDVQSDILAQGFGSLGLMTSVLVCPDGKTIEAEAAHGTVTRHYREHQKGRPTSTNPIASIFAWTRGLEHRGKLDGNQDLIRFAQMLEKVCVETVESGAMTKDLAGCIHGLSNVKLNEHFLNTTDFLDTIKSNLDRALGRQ

IDH2 R172K = biological target: T2, IDH2 R172K (Homo sapiens, UniProt P48735, R172K); assay: IDH2 R172K enzymatic assay (NADPH cofactor depletion, diaphorase/resazurin readout); type: biochemical; settings: read-out: Enz R172K
T2 sequence (P48735 40-452 R172K): T1 sequence (P48735 40-452 R140Q) with Q101R, R133K
Outline: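 Cofactor depletion format: enzyme + compound 1 h RT; add substrate mix (50 μM NADPH, 6.3 mM α-KG); react 1 h RT; quench with stop mix (36 μg/ml diaphorase, 60 μM resazurin); read resorufin fluorescence as residual NADPH.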

[1] = tested on: U87MG pLVX-IDH2 R140Q-neo cells; assay: U87MG pLVX-IDH2 R140Q-neo cell based assay, 2-HG in media by LC-MS at 48 hours
Outline: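 2-HG secreted into the medium was measured by LC-MS after 48 h of compound treatment (0.2% DMSO final) of U87MG pLVX-IDH2 R140Q-neo cells in DMEM/10% FBS. The same wells were assayed at 72 h by CellTiter-Glo luminescence for effects on growth.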

| SMILES | IC50 (IDH2 R140Q) | IC50 (IDH2 R172K) | IC50 ([1]; Homo sapiens, U-87 MG) | IC50 [1] |
| --- | --- | --- | --- | --- |
| CC(C)(O)CNc1nc(Nc2cc(F)cc(F)c2)nc(-c2cccc(C(C)(F)F)n2)n1 [Compound 560, 1-[4-[6-(1,1-Difluoro-ethyl)-pyridin-2-yl]-6-(3,5-difluoro-phenylamino)-[1,3,5]triazin-2-ylamino]-2-methyl-propan-2-ol] | 100 to 1000 nM | < 100 nM | < 100 nM |  |
| CC(C)(CO)Nc1nc(Nc2ccnc(C(F)(F)F)c2)nc(-c2cccc(C(F)(F)F)n2)n1 [Compound 562, 2-Methyl-2-[4-(6-trifluoromethyl-pyridin-2-yl)-6-(2-trifluoromethyl-pyridin-4-ylamino)-[1,3,5]triazin-2-ylamino]-propan-1-ol] | 100 to 1000 nM | < 100 nM | < 100 nM |  |
| CC1(Nc2nc(Nc3ccnc(C4CC4)c3)nc(-c3cccc(C(F)(F)F)n3)n2)CC1 [Compound 565, N-(2-Cyclopropyl-pyridin-4-yl)-N′-(1-methyl-cyclopropyl)-6-(6-trifluoromethyl-pyridin-2-yl)-[1,3,5]triazine-2,4-diamine] | 100 to 1000 nM | < 100 nM | < 100 nM |  |
| CC(C)(C)Nc1nc(Nc2ccnc(C(C)(F)F)c2)nc(-c2cccc(C(F)(F)F)n2)n1 [Compound 567, N-tert-Butyl-N′-[2-(1,1-difluoro-ethyl)-pyridin-4-yl]-6-(6-trifluoromethyl-pyridin-2-yl)-[1,3,5]triazine-2,4-diamine] | 100 to 1000 nM | < 100 nM | < 100 nM |  |
| OC1CC1Nc1nc(Nc2ccnc(C(F)(F)F)c2)nc(-c2cccc(C(F)(F)F)n2)n1 (stereo not drawn) [Compound 568, 2-[4-(6-Trifluoromethyl-pyridin-2-yl)-6-(2-trifluoromethyl-pyridin-4-ylamino)-[1,3,5]triazin-2-ylamino]-cyclopropanol] | 100 to 1000 nM | 100 to 1000 nM | < 100 nM |  |
| OC1CC1Nc1nc(Nc2ccnc(C(F)(F)F)c2)nc(-c2cccc(C(F)(F)F)n2)n1 (stereo not drawn) [Compound 569, 2-[4-(6-Trifluoromethyl-pyridin-2-yl)-6-(2-trifluoromethyl-pyridin-4-ylamino)-[1,3,5]triazin-2-ylamino]-cyclopropanol] | 100 to 1000 nM | 100 to 1000 nM |  | 100 to 1000 nM |

Next, values leading:

| IC50 (IDH2 R140Q) | IC50 (IDH2 R172K) | IC50 ([1]; Homo sapiens, U-87 MG) | IC50 [1] | SMILES |
| --- | --- | --- | --- | --- |
| 100 to 1000 nM | < 100 nM | < 100 nM |  | COC1(c2cc(Nc3nc(NC(C)C)nc(-c4cccc(C(F)(F)F)n4)n3)ccn2)CC1 [Compound 559, N-Isopropyl-N′-[2-(1-methoxy-cyclopropyl)-pyridin-4-yl]-6-(6-trifluoromethyl-pyridin-2-yl)-[1,3,5]triazine-2,4-diamine] |
| 100 to 1000 nM | < 100 nM | < 100 nM |  | CC(C)Nc1nc(Nc2cc(Cl)cc(S(C)(=O)=O)c2)nc(-c2cccc(C(F)(F)F)n2)n1 [Compound 561, N-(3-Chloro-5-methanesulfonyl-phenyl)-N′-isopropyl-6-(6-trifluoromethyl-pyridin-2-yl)-[1,3,5]triazine-2,4-diamine] |
| 100 to 1000 nM | < 100 nM | < 100 nM |  | CC(C)Nc1nc(Nc2ccnc(C3CC3)c2)nc(-c2cccc(C(F)(F)F)n2)n1 [Compound 563, N-(2-Cyclopropyl-pyridin-4-yl)-N′-isopropyl-6-(6-trifluoromethyl-pyridin-2-yl)-[1,3,5]triazine-2,4-diamine] |
| 100 to 1000 nM | < 100 nM | < 100 nM |  | CC(C)(C)Nc1nc(Nc2ccnc(C3CC3)c2)nc(-c2cccc(C(F)(F)F)n2)n1 [Compound 564, N-tert-Butyl-N′-(2-cyclopropyl-pyridin-4-yl)-6-(6-trifluoromethyl-pyridin-2-yl)-[1,3,5]triazine-2,4-diamine] |
| 100 to 1000 nM | < 100 nM | < 100 nM |  | CC(C)Nc1nc(Nc2cc(F)cc(S(C)(=O)=O)c2)nc(-c2cccc(C(F)(F)F)n2)n1 [Compound 570, N2-(3-fluoro-5-(methylsulfonyl)phenyl)-N4-isopropyl-6-(6-(trifluoromethyl)pyridin-2-yl)-1,3,5-triazine-2,4-diamine] |
